Measured values taken from PMC8880268, “Magnolol and Luteolin Inhibition of α-Glucosidase Activity: Kinetics and Type of Interaction Detected by In Vitro and In Silico Studies” (Pharmaceuticals, 2022).
Entries after “also recorded” stand apart in the source; their conditions may differ. Read-outs that look alike come from different tables or passages of the source.

Key:
α-glucosidase [1] = target: T1, α-glucosidase (Saccharomyces cerevisiae, UniProt P38158); test: Kinetic analysis of yeast α-glucosidase inhibition (Michaelis–Menten and Lineweaver–Burk plots); assay type: biochemical; conditions: for type of inhibition: Michaelis–Menten and Lineweaver–Burk plots; for Kcat of α-glucosidase: 0.075 µM α-glucosidase
T1 construct: purchased Merck KGaA, Darmstadt, Germany
T1 sequence (P38158 whole entry): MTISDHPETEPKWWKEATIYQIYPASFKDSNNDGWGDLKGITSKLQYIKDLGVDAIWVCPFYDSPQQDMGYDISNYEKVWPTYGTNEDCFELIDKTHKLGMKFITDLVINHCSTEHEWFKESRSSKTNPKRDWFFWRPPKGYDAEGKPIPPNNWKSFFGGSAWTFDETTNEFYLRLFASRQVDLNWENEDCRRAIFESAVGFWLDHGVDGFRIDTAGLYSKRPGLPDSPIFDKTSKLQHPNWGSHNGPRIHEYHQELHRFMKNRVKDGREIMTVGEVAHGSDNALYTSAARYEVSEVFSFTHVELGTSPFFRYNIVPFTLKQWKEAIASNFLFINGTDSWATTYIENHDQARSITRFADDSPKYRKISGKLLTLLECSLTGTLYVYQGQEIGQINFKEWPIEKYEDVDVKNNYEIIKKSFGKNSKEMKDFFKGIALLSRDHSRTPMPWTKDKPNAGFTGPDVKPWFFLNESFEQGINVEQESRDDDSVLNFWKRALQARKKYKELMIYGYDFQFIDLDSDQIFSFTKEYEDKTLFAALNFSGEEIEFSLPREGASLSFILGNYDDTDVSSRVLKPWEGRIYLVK
Protocol: The type of enzyme inhibition exerted by inhibitors was evaluated from kinetic studies using different substrate concentrations (0.25–2.5 mM pNPG) applying Michaelis–Menten and Lineweaver–Burk plots. Inhibition constants (Ki) were determined by plots of the Y-intercept of the Lineweaver–Burk plot vs. inhibitor concentration.

α-glucosidase [2] = target: T1, α-glucosidase; test: Fluorescence quenching analysis and thermodynamic parameters; assay type: binding; conditions: for ΔG° (free energy change) / ΔH° (enthalpy change) / ∆S° (entropy change): Van ’t Hoff equation; for Ksv (Stern–Volmer quenching constant): pH 6.8, α-glucosidase 0.35 µM; for ΔH° (enthalpy change) / ∆S° (entropy change): 298–310 K; for number of binding sites: no temperature stated; for Kd: read-out: Ka (binding constant) (converted)
Protocol: The interaction of inhibitors with α-glucosidase was studied using the fluorescence quenching method. […] Measurements were made in the emission range of 300–450 nm, with an excitation of 280 nm, after 10 min of stabilization. The fluorescent spectra of α-glucosidase (0.35 µM) and each inhibitor (0–1.0 µM) were carried out at three different temperatures (298, 304, and 310 K) and the bandwidths were set at 5 nm for both emission and excitation slits. For each sample, three fluorescence spectra were acquired, and the blank was subtracted. The compound quenching mechanism was assessed using the Stern–Volmer equation: F0 / F = 1 + Ksv[Q] = 1 + Kq^.τo[Q], where F0 and F are the fluorescence measure in absence and in presence of different concentrations of quencher, respectively; Ksv is the Stern–Volmer quenching constant; Kq is the coefficient of quencher rate coefficient; τ0 is the life time of the excited state; and [Q] is the concentration of the quencher.
Further elaboration of the equilibrium within the free and bound molecules can be achieved through the analysis of the fluorescence emission data utilizing the following equation: log (F0 − F) / F = log Ka + n log [Q], which obtains the binding constant (Ka) and the number of binding sites per protein (n) for the enzyme-inhibitor system.
Thermodynamic spontaneity is an important factor in the study of protein-ligand interaction. A system tends not only toward a lower energy state (enthalpy, ΔH), but also according to a state of disorder (entropy, ΔS). Thermodynamic parameters were obtained according to the Van ’t Hoff equation and the plot of “log Ka vs. 1/T”. The trade-off between enthalpy (ΔH°) and entropy (ΔS°) is used to obtain the standard free energy variation (ΔG°).

α-glucosidase [3] = target: T1, α-glucosidase; test: Inactivation kinetics, time course of α-glucosidase activity; assay type: biochemical; conditions: enzyme 0.075 µM, pNPG 2 mM
Protocol: The enzyme and substrate concentrations were 0.075 µM and 2 mM, respectively.

α-glucosidase [4] = target: T1, α-glucosidase; test: Yeast α-glucosidase inhibitory assay (pNPG substrate, absorbance 405 nm); assay type: biochemical; conditions: for reversibility of inhibition: plots v vs. [α-glucosidase] at different inhibitor concentrations; for IC50: 2 mM pNPG
Protocol: α-Glucosidase inhibitory activity was determined according to a previous method. Briefly, 0.1 mM PBS (pH 6.8) was used to dissolve α-glucosidase and pNPG. In detail, 80 μL of PBS or 80 μL of test sample were added to 96-well plates. Successively, 20 μL of enzyme (0.025–0.125 µM) were added to each well. Magnolol (10–100 μM) and luteolin (5–50 μM) were prepared in DMSO (<1% v/v). […] Each sample was incubated with α-glucosidase for 10 min at 37 °C. The reaction started by adding 200 μL of pNPG (2 mM). The absorbance values were detected at 405 nm for 60 min, using a PerkinElmer Victor Nivo microplate spectrophotometer (Waltham, MA, USA). The α-glucosidase activity in the absence of inhibitors was defined as 100%. The half-maximal inhibitory concentration (IC50) was estimated by plot of relative enzymatic activity vs. inhibitor concentration.

α-glucosidase [5] = target: T1, α-glucosidase; test: Synchronous fluorescence spectra; conditions: pH 6.8, 298 K
Source text: The application of this method allows the identification of conformational changes in proteins according to the spectroscopic behavior of the tyrosine and tryptophan residues. Synchronous fluorescence spectra were collected in the emission range of 260–320 nm. The difference between excitation and emission wavelength (Δλ) was established at 15 nm (tyrosine residues) or at 60 nm (tryptophan residues).

α-glucosidase [6] = target: T1, α-glucosidase; test: Non-radiation energy transfer (Förster resonance energy transfer) distance; assay type: binding; conditions: room temperature, pH 6.8, 0.35 µM
Protocol: The distance between magnolol and α-glucosidase was calculated according to the theory of Förster resonance energy transfer. To calculate the distance (r) between the donor and the acceptor, the emission wavelength of α-glucosidase was overlapped with the absorption band of the inhibitor. The fluorescence spectrum and the UV absorption spectrum of the inhibitor were collected in the wavelength range of 300–500 nm, at room temperature, pH 6.8, and at a concentration of 0.35 µM.

C[C@H]1O[C@H](O[C@H]2[C@H](O)[C@@H](O)[C@@H](O[C@H]3[C@H](O)[C@@H](O)C(O)O[C@@H]3CO)O[C@@H]2CO)[C@H](O)[C@@H](O)[C@@H]1N[C@H]1C=C(CO)[C@@H](O)[C@H](O)[C@H]1O (some centres unmarked) [Acarbose, reference compound]
type of inhibition (α-glucosidase [1]): competitive inhibitor
Kcat of α-glucosidase (α-glucosidase [1]; inhibitor 200 µM): 2.83 ± 0.33 s⁻¹
Vmax of α-glucosidase (α-glucosidase [1]; inhibitor 200 µM, converted using the Lambert–Beer relationship): 12.7 ± 1.50 µM/min
Kcat of α-glucosidase (α-glucosidase [1]; inhibitor 400 µM): 2.87 ± 0.39 s⁻¹
Vmax of α-glucosidase (α-glucosidase [1]; inhibitor 400 µM, converted using the Lambert–Beer relationship): 12.9 ± 1.70 µM/min
Kcat of α-glucosidase (α-glucosidase [1]; inhibitor 800 µM): 2.77 ± 0.44 s⁻¹
Vmax of α-glucosidase (α-glucosidase [1]; inhibitor 800 µM, converted using the Lambert–Beer relationship): 12.4 ± 2.00 µM/min
Vmax of α-glucosidase (α-glucosidase [1]; inhibitor 1600 µM): 0.120 ± 0.016 ΔΟD/min
Kcat of α-glucosidase (α-glucosidase [1]; inhibitor 1600 µM): 2.66 ± 0.36 s⁻¹
Vmax of α-glucosidase (α-glucosidase [1]; inhibitor 1600 µM, converted using the Lambert–Beer relationship): 12.0 ± 1.60 µM/min
Kcat of α-glucosidase (α-glucosidase [1]; inhibitor 3200 µM): 2.79 ± 0.67 s⁻¹
Vmax of α-glucosidase (α-glucosidase [1]; inhibitor 3200 µM, converted using the Lambert–Beer relationship): 12.5 ± 3.00 µM/min
Kcat of α-glucosidase (α-glucosidase [1]; inhibitor 4000 µM): 3.12 ± 1.04 s⁻¹
Vmax of α-glucosidase (α-glucosidase [1]; inhibitor 4000 µM, converted using the Lambert–Beer relationship): 14.1 ± 4.70 µM/min
Kq (bimolecular quenching constant) (α-glucosidase [2]; 298 K): 3.75 ± 0.041 10^13 M^−1 s^−1
n (number of binding sites) (α-glucosidase [2]; 298 K): 1.77
ΔG° (free energy change) (α-glucosidase [2]; 298 K): 0.621 kcal/mol
Ksv (Stern–Volmer quenching constant) (α-glucosidase [2]; 298 K): 3.75 ± 0.04 10^5 M^−1
ΔH° (enthalpy change) (α-glucosidase [2]): -10.88 kcal/mol
∆S° (entropy change) (α-glucosidase [2]): −161.47 J mol^−1K^−1
Kq (bimolecular quenching constant) (α-glucosidase [2]; 304 K): 1.89 ± 0.014 10^13 M^−1 s^−1
n (number of binding sites) (α-glucosidase [2]; 304 K): 1.38
ΔG° (free energy change) (α-glucosidase [2]; 304 K): 0.853 kcal/mol
Ksv (Stern–Volmer quenching constant) (α-glucosidase [2]; 304 K): 1.89 ± 0.01 10^5 M^−1
Kq (bimolecular quenching constant) (α-glucosidase [2]; 310 K): 1.80 ± 0.020 10^13 M^−1 s^−1
n (number of binding sites) (α-glucosidase [2]; 310 K): 1.36
ΔG° (free energy change) (α-glucosidase [2]; 310 K): 1.09 kcal/mol
Ksv (Stern–Volmer quenching constant) (α-glucosidase [2]; 310 K): 1.80 ± 0.02 10^5 M^−1
number of binding sites (α-glucosidase [2]): approximately 1
Inactivation rate constant K (α-glucosidase [3]; inhibitor 200 µM): 2.76 ± 0.07 10^−4 s^−1
Inactivation rate constant K (α-glucosidase [3]; inhibitor 400 µM): 2.81 ± 0.07 10^−4 s^−1
Inactivation rate constant K (α-glucosidase [3]; inhibitor 800 µM): 2.83 ± 0.05 10^−4 s^−1
Inactivation rate constant K (α-glucosidase [3]; inhibitor 1600 µM): 2.84 ± 0.03 10^−4 s^−1
Inactivation rate constant K (α-glucosidase [3]; inhibitor 3200 µM): 2.85 ± 0.01 10^−4 s^−1
Inactivation rate constant K (α-glucosidase [3]; inhibitor 4000 µM): 2.85 ± 0.09 10^−4 s^−1
reversibility of inhibition (α-glucosidase [4]): reversible inhibition

C=CCc1ccc(O)c(-c2cc(CC=C)ccc2O)c1 [Magnolol, 5,5′-diallyl-biphenyl-2,2′-diol]
type of inhibition (α-glucosidase [1]): mixed-type antagonism
type of inhibition (α-glucosidase [1]; listed as magnolol): mixed-type inhibition; also recorded: mixed-type inhibitor; also recorded: reversible mixed-type interaction
Kcat of α-glucosidase (α-glucosidase [1]; inhibitor 10 µM): 3.59 ± 0.17 s⁻¹
Vmax of α-glucosidase (α-glucosidase [1]; inhibitor 10 µM, converted using the Lambert–Beer relationship): 16.2 ± 0.80 µM/min
Kcat of α-glucosidase (α-glucosidase [1]; inhibitor 25 µM): 3.29 ± 0.15 s⁻¹
Vmax of α-glucosidase (α-glucosidase [1]; inhibitor 25 µM, converted using the Lambert–Beer relationship): 14.8 ± 0.70 µM/min
Kcat of α-glucosidase (α-glucosidase [1]; inhibitor 50 µM): 2.86 ± 0.13 s⁻¹
Vmax of α-glucosidase (α-glucosidase [1]; inhibitor 50 µM, converted using the Lambert–Beer relationship): 12.9 ± 0.60 µM/min
Kcat of α-glucosidase (α-glucosidase [1]; inhibitor 100 µM): 2.22 ± 0.29 s⁻¹
Vmax of α-glucosidase (α-glucosidase [1]; inhibitor 100 µM, converted using the Lambert–Beer relationship): 10.0 ± 1.30 µM/min
Kq (bimolecular quenching constant) (α-glucosidase [2]; 298 K): 3.90 ± 0.007 10^13 M^−1 s^−1
n (number of binding sites) (α-glucosidase [2]; 298 K): 0.39
Ksv (Stern–Volmer quenching constant) (α-glucosidase [2]; 298 K): 3.89 ± 0.01 10^5 M^−1
Kd (α-glucosidase [2]; 298 K): 3.37 µM
ΔH° (enthalpy change) (α-glucosidase [2]): 9.376 kcal/mol
∆S° (entropy change) (α-glucosidase [2]): 121.83 J mol^−1K^−1
Kq (bimolecular quenching constant) (α-glucosidase [2]; 304 K): 4.22 ± 0.011 10^13 M^−1 s^−1
n (number of binding sites) (α-glucosidase [2]; 304 K): 0.42
ΔG° (free energy change) (α-glucosidase [2]; 304 K): -0.523 kcal/mol
Ksv (Stern–Volmer quenching constant) (α-glucosidase [2]; 304 K): 4.22 ± 0.01 10^5 M^−1
Kd (α-glucosidase [2]; 304 K): 2.2 µM
Kq (bimolecular quenching constant) (α-glucosidase [2]; 310 K): 5.30 ± 0.022 10^13 M^−1 s^−1
n (number of binding sites) (α-glucosidase [2]; 310 K): 0.65
ΔG° (free energy change) (α-glucosidase [2]; 310 K): -0.349 kcal/mol
Ksv (Stern–Volmer quenching constant) (α-glucosidase [2]; 310 K): 5.30 ± 0.02 10^5 M^−1
Kd (α-glucosidase [2]; 310 K): 1.82 µM
fluorescence quenching mechanism (α-glucosidase [2]; based on Ksv and Kq values): static-dynamic quenching process
number of binding sites (α-glucosidase [2]): ~0.6
shift of synchronous fluorescence maximum (α-glucosidase [5]; ∆λ = 15 nm (tyrosine residues)): red shift from 286 to 290
shift of synchronous fluorescence maximum (α-glucosidase [5]; ∆λ = 60 nm (tryptophan residues)): no modification
Inactivation rate constant K (α-glucosidase [3]; inhibitor 10 µM): 2.78 ± 0.05 10^−4 s^−1
Inactivation rate constant K (α-glucosidase [3]; inhibitor 25 µM): 2.81 ± 0.03 10^−4 s^−1
Inactivation rate constant K (α-glucosidase [3]; inhibitor 50 µM): 2.81 ± 0.01 10^−4 s^−1
Inactivation rate constant K (α-glucosidase [3]; inhibitor 100 µM): 2.85 ± 0.08 10^−4 s^−1
calculated distance between inhibitor and α-glucosidase (α-glucosidase [6]): 2.06 nm
IC50 (α-glucosidase [4]; IC50, α-glucosidase 0.025 × 10^−6 M): 28.3 ± 10.7 µM
IC50 (α-glucosidase [4]; IC50, α-glucosidase 0.05 × 10^−6 M): 28.5 ± 11 µM
IC50 (α-glucosidase [4]; IC50, α-glucosidase 0.075 × 10^−6 M): 32.6 ± 10.5 µM
IC50 (α-glucosidase [4]; IC50, α-glucosidase 0.125 × 10^−6 M): 35.5 ± 10.2 µM
reversibility of inhibition (α-glucosidase [4]): reversible inhibition
IC50 (α-glucosidase [4]; −Log IC50, α-glucosidase 0.05 × 10^−6 M): 28.2 µM
